Read-outs that look alike come from different tables or passages of the source.
Test: Pharmacokinetics after single intravenous drip infusion, plasma LC-MS/MS
Type: in vivo, Philippine macaques
Details: male, plasma, 0.58 mg/kg, plasma; for AUC(0-t) / AUC(0-inf) / clearance / Cmax / half-life / Vd / MRT last / MRT inf / Tmax: cynomolgus monkey, iv, AST-3424 0.58 mg/kg single intravenous infusion; for Tmax: read-out: Tmax, Mean
Description: AST-3424 and AST-3424-D6 (i.e. the compound of formula I) were administered to Philippine macaques by intravenous drip infusion, and blood samples were collected at different appointed times. LC-MS/MS was used to determine concentrations of the test substances in plasma of the Philippine macaques after administration, and relevant pharmacokinetic parameters were calculated.
Preparation method: 0.447 ml of AST-3424 (0.2 mg/ml) and 0.481 ml of AST-3424-D6 (0.2 mg/ml) were added into 104.272 ml of the dissolvent, respectively, and mixed for 5 minutes to obtain colorless and clarified solutions with pH 7.0.
The four male Philippine macaques were purchased from Guangxi Xiongsen Primate Development Experiment Co., Ltd. All Philippine macaques were healthy with qualified medical examination and no abnormality. Three of animals were used for the experiment, and one of them was used to prepare blank plasma.
About 0.8 ml of blood samples were collected through femoral vein and anticoagulated with heparin sodium. Appointed times of blood collection were before administration, 0.17, 0.25, 0.5, 0.75, 1, 2, and 4 hours after administration.
The blood samples were placed on ice after collection. Next, plasma samples were separated by centrifugation, and centrifugation conditions were 3500 rpm for 10 minutes at 4° C. Then, the collected plasma samples were stored at −80° C. until analysis. The plasma samples were analyzed by LC-MS/MS by an analysis department of an experimental institution. Besides, Lower limit of quantifications (LLOQ) of AST-3424 and AST-3424-D6 detection were 1 ng/ml. The accuracy of analysis results of an accompanying standard curve and a quality control samples all met the relevant requirements of biological analysis (the accuracy of the quality control samples exceeding 66.7% was between 85˜115%) in a process of the sample detection.
According to average blood concentration data of each group at each appointed time, the pharmacokinetic parameters of the compounds were respectively computed by a pharmacokinetic computing software, a non-compartmental model. In addition, the pharmacokinetic parameters were AUC0-t, AUC0-∞, MRT0-∞, Cmax, Tmax, t1/2, etc. In the case of the concentrations of the samples whose concentration being lower than a lower limit of quantification, the following schemes were used to compute the pharmacokinetic parameters. The samples sampled before reaching Cmax shall be computed as zero value, while the samples sampled after reaching Cmax shall be computed as non-quantifiable (marked as “BLQ”).
After a single intravenous infusion of the compounds AST-3424 and AST-3424-D6 was administered to the Philippine macaques, the whole blood samples of the corresponding animals were collected at the appointed times. Next, the whole blood samples were processed and biologically analyzed to obtain concentrations of the compounds in the plasma at the different appointed times. Results of the assay were listed in Table 14 below, and corresponding means of the plasma-drug concentration-time curves are shown in FIG. 3.
According to the plasma-drug concentration data of each drug group, the pharmacokinetic parameters of each compound group were computed using the non-compartmental model of the pharmacokinetic computing software. The pharmacokinetic

[1] = Philippine macaque, intravenous, AST-3424 intravenous drip infusion 0.58 mg/kg, individual animals 101, 102, 103, read-out: Plasma-drug concentration
[2] = Philippine macaque, intravenous, AST-3424 intravenous drip infusion 0.58 mg/kg, read-out: Plasma-drug concentration, mean

## C[C@H](OP(=O)(N1CC1)N1CC1)c1ccc([N+](=O)[O-])c(Oc2cccc(C(=O)N(C)C)c2)c1 [AST-3424, (S)-1-(3-(3-N,N-Dimethylaminocarbonyl)phenoxy-4-nitrophenyl)-1-ethyl-N,N′-bis(ethylene) phosphoramidate]
Philippine macaque, individual animals 101, 102, 103, read-out: AUC(0−t)
  AUC(0-t): 404 ng·h/mL
Philippine macaque, individual animals 101, 102, 103, read-out: AUC(0−∞)
  AUC(0-inf): 409 ng·h/mL
Philippine macaque, individual animals 101, 102, 103, read-out: Cl (converted)
  clearance: 23.6 mL/min/kg
Philippine macaque, individual animals 101, 102, 103, read-out: Cmax
  Cmax: 696 ng/mL
Philippine macaque, individual animals 101, 102, 103, read-out: T1/2 (converted)
  half-life: 6.6 min
Philippine macaque, individual animals 101, 102, 103, read-out: Vss
  Vd: 0.202 L/kg
Philippine macaque, individual animals 101, 102, 103, read-out: Vz
  Vd: 0.231 L/kg
Philippine macaque, read-out: AUC(0−t), Mean
  AUC(0-t): 436 ± 35.6 ng·h/mL
Philippine macaque, read-out: AUC(0−∞), Mean
  AUC(0-inf): 438 ± 33.5 ng·h/mL
Philippine macaque, read-out: Cl, Mean (converted)
  clearance: 22.1 mL/min/kg
Philippine macaque, read-out: Cmax, Mean
  Cmax: 725 ± 66.6 ng/mL
Philippine macaque, read-out: MRT(0−t), Mean
  MRT last: 10.2 ± 1.8 min
Philippine macaque, read-out: MRT(0−∞), Mean
  MRT inf: 10.2 ± 1.8 min
Philippine macaque, read-out: T1/2, Mean (converted)
  half-life: 9.6 min
Philippine macaque
  Tmax: 18.6 min
Philippine macaque, read-out: Vz, Mean
  Vd: 0.306 L/kg
[1]
  concentration at 0.17 hr: 638 ng/mL
  concentration at 0.25 h: 649 ng/mL
  concentration at 0.5 h: 677 ng/mL
  concentration at 0.75 h: 152 ng/mL
  concentration at 1 h: 57.3 ng/mL
[2]
  concentration at 0.17 hr: 708 ng/mL
  concentration at 0.25 h: 691 ng/mL
  concentration at 0.5 h: 695 ng/mL
  concentration at 0.75 h: 143 ng/mL
  concentration at 1 h: 46.6 ng/mL
Philippine macaque, intravenous, AST-3424 intravenous drip infusion 0.58 mg/kg, 2 hr, individual animals 101, 102, 103, LLOQ 1 ng/ml, read-out: Plasma-drug concentration
  concentration at 2 h: 1.29 ng/mL
Philippine macaque, intravenous, AST-3424 intravenous drip infusion 0.58 mg/kg, 2 hr, read-out: Plasma-drug concentration, mean
  concentration at 2 hr: 1.4 ng/mL
Individual animals 101, 102, 103, read-out: MRT(0−t)
  MRT last: 7.8 min
Individual animals 101, 102, 103, read-out: MRT(0−∞)
  MRT inf: 8.4 min
  Tmax: 18.4 min
read-out: Vss, Mean
  Vd: 0.226 L/kg

From patent publication US20220395464A1, “ORALLY ADMINISTERED SOLID DOSAGE FORM DRUG” (ASCENTAWITS PHARMACEUTICALS, LTD., priority 2019, published 2022)
